# Assay results published in ChEMBL document CHEMBL1201862, “PubChem BioAssay data set” (2004).
# Active and inactive are the calls of the source. Rule as the data show it, for most assays here: actives have a measured EC50 and inactives only a lower limit.
# How the values were obtained:
# [1] = target: Genome polyprotein (dengue virus type 2, UniProt P29990); assay: flavivirus cap methylation enzyme inhibition – biochemical, confirmation dose response, primary screen (AID 588689); type: functional
# [2] = target: FAD-linked sulfhydryl oxidase ALR (Homo sapiens, UniProt P55789); assay: ALR-catalysed DTT oxidation blockers – biochemical, H2O2 detection, luminescence, cherry-pick, dose response (AID 493248)
# [3] = cells; type: functional
# [4] = Trypanosoma cruzi growth suppression in host cells – NIH3T3 host cells, beta-gal luminescence, confirmation (AID 2044); type: functional, cell-based;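 also: intracellular parasites grown in NIH/3T3 mouse fibroblasts as host cells; luminescent beta-galactosidase reporter signal from transgenic T. cruzi replicating inside host cells; inhibitors lower the luminescence signal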
# [5] = NIH3T3 cell viability loss – ATP luminescence, mouse fibroblasts, counter-screen, dose response (AID 2010); type: functional, cell-based;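 also: cells exposed to compound for about 90 hours before reading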
# [6] = target: T1, Heat shock factor protein 1 (Mus musculus, UniProt P38532); assay: enhancement of HSF1-driven luciferase signal – cell-based, NIH3T3, luminescence, dose retest, confirmation (AID 435004); type: functional;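 also: stress induced by proteasome inhibitor MG132 added 30 min after compound; luciferase reporter driven by HSF1 response element in NIH3T3 cells; actives raise luminescence as potentiators of the MG132 stress response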
# T1 sequence (P38532 whole entry): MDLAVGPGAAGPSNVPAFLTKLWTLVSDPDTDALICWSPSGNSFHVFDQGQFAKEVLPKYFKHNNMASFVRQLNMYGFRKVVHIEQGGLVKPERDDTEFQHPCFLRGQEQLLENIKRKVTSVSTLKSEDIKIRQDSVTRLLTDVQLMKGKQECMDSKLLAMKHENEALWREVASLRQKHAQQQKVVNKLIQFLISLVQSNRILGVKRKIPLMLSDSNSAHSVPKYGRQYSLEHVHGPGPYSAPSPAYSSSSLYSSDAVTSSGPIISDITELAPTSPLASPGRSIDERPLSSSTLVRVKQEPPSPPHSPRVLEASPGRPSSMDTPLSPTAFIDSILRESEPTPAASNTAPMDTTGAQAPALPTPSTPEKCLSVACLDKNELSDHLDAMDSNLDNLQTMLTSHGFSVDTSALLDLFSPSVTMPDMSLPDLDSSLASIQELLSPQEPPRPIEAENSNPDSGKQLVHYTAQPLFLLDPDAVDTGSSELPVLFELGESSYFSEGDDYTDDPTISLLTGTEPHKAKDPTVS
# [7] = system: BJ; assay: BJ-TERT fibroblast viability loss – cell-based, RAS-independent, luminescence, dose response (AID 1933); type: functional; details: Homo sapiens
# [8] = system: BJ; assay: cells; type: functional, cell-based; details: Homo sapiens
# [9] = system: BJ; assay: BJ-TERT-LT-ST fibroblast viability loss – cell-based, RAS-independent, luminescence, dose response (AID 1935); type: functional; details: Homo sapiens;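 also: BJ fibroblasts immortalized with TERT plus LT and ST oncogenes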
# [10] = DRD fibroblast viability loss – cell-based, non-viral oncogenic, luminescence, dose response (AID 1934); type: functional; details: Homo sapiens
# [11] = target: Luciferin 4-monooxygenase (Photinus pyralis, UniProt P08659); assay: inhibition of purified Photinus pyralis luciferase – biochemical, luminescence, dose response (AID 1891)
# [12] = Luminescence Cell-Based Dose Confirmation HTS to Identify Inhibitors of Platelet Dense Granule Release. [Related pubchem assays: 1663 (Primary HTS), 1678 (Summary of Project)]; type: functional
# [13] = cells; type: functional, cell-based
# [14] = cells; type: functional, cell-based; remark: listed apart in the source
# [15] = target: Cytochrome P450 2C9 (Homo sapiens, UniProt P11712)
# [16] = viability of uninfected HEp-2 cells – cell-based, HTS, cytotoxicity control for RSV inhibitor project, dose response (AID 2410); type: functional; details: human respiratory syncytial virus
# [17] = target: T1, Heat shock factor protein 1; assay: decrease of HSF1-responsive luciferase luminescence – cell-based, NIH3T3, dose retest, confirmation (AID 2382); type: functional;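 also: NIH3T3 fibroblasts with HSF1-driven luciferase reporter stressed by proteasome inhibitor MG132; luminescence from HSF1-driven luciferase expression after 8 hours of MG132 stress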
# [18] = blockers of HIV-1 ZM109 envelope-driven cell-cell fusion – HeLa effector, CEM target cells, luciferase, cherry-pick, dose response (AID 652058); type: functional, cell-based;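 also: luciferase signal from HIV-1 Env mediated cell-cell fusion of effector and target cells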
# [19] = HIV-1 AD8 envelope cell-cell fusion blockers – cherry-pick, dose response (AID 652062); type: functional, cell-based;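 also: luciferase signal from cell-cell fusion driven by HIV-1 clade B AD8 Env; potency is for inhibitors of fusion seen as a drop in luminescence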
# [20] = target: Paired box protein Pax-8 (Homo sapiens, UniProt Q06710); assay: PAX8 transcriptional activity inhibition in RMG-I – RMG-I cells, luciferase, cherry-pick, dose response (AID 687027); type: functional, cell-based;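 also: luciferase reporter driven by Pax8 target thyroperoxidase promoter measured by SteadyGlo luminescence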
# [21] = blockers of HIV-1 envelope-mediated cell-cell fusion – cherry-pick, dose response (AID 652057); type: functional, cell-based
# [22] = target: T2, Rac GTPase-activating protein 1 (Homo sapiens, UniProt Q9H0H5); assay: blockers of MgcRacGAP-driven Rac1 GTP hydrolysis – biochemical, ADP Hunter fluorescence, primary and confirmatory, confirmation (AID 624330); type: functional
# T2 sequence (Q9H0H5 whole entry): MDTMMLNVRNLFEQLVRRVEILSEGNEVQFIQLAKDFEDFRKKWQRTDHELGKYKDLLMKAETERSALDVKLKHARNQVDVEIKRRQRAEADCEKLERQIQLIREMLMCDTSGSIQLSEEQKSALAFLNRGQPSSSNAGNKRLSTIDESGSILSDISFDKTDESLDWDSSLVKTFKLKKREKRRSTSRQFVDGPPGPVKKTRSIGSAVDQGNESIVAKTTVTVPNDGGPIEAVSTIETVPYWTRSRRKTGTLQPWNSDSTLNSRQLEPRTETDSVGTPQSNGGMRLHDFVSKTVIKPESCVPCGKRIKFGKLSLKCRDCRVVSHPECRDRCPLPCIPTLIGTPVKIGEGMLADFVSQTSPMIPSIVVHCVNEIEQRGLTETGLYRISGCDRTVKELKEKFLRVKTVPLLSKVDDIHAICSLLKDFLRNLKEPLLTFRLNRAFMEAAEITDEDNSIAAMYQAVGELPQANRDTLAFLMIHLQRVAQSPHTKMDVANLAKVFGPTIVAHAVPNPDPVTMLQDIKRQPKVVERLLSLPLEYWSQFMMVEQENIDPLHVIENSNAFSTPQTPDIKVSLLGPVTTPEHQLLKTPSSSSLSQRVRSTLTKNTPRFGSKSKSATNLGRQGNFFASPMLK
# [23] = target: T3, Cytochrome P450 1A2 (Homo sapiens, UniProt P05177);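 also: PubChem cytochrome P450 panel assay, CYP1A2 panel member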
# T3 sequence (P05177 whole entry): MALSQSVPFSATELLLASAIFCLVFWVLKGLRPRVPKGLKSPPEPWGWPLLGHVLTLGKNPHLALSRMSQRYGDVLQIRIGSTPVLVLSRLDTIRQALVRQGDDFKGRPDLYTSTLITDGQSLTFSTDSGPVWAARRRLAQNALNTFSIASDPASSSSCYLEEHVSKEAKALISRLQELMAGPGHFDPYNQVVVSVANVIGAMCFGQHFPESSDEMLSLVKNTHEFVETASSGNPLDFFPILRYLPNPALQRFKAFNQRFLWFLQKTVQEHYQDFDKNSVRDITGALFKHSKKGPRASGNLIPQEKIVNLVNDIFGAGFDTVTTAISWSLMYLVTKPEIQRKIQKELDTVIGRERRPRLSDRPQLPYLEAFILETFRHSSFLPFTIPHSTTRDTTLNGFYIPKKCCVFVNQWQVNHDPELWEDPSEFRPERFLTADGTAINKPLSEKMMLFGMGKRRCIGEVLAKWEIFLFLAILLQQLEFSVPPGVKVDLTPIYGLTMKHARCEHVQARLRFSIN
# Sequence of FAD-linked sulfhydryl oxidase ALR (P55789 whole entry): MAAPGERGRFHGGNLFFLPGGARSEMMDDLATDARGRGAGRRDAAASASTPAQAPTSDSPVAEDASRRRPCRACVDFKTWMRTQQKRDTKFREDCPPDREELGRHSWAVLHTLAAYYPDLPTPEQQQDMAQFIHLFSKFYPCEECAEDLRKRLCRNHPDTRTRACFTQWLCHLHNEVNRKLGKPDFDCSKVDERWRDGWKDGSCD
# Sequence of Luciferin 4-monooxygenase (P08659 whole entry): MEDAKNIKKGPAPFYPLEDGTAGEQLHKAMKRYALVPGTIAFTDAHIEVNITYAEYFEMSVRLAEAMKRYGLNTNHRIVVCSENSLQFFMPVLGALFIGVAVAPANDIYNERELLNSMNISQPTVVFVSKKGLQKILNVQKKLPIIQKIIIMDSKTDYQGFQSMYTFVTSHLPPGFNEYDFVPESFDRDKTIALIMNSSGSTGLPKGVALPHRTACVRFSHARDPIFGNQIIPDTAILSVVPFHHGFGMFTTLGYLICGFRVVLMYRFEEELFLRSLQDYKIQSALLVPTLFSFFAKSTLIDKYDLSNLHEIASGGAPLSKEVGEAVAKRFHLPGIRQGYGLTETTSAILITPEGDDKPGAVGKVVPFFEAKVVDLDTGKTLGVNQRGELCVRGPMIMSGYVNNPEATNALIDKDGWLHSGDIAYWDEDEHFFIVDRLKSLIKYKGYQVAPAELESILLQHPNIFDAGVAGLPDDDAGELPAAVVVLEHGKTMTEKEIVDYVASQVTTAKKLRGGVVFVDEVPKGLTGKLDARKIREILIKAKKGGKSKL
# Sequence of Cytochrome P450 2C9 (P11712 whole entry): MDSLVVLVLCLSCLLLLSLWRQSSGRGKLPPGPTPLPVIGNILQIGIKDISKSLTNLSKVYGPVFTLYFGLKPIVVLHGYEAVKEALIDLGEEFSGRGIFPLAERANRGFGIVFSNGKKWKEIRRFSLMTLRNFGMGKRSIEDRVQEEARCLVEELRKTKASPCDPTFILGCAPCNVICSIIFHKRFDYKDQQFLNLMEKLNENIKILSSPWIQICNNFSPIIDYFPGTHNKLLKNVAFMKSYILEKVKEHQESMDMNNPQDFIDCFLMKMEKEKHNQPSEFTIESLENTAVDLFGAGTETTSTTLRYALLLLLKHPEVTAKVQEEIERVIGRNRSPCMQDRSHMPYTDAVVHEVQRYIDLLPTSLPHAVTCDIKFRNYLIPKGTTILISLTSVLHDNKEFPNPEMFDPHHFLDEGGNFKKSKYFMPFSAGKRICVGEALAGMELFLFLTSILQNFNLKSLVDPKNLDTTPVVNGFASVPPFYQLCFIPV
# Sequence of Paired box protein Pax-8 (Q06710 whole entry, the tested form may be a part): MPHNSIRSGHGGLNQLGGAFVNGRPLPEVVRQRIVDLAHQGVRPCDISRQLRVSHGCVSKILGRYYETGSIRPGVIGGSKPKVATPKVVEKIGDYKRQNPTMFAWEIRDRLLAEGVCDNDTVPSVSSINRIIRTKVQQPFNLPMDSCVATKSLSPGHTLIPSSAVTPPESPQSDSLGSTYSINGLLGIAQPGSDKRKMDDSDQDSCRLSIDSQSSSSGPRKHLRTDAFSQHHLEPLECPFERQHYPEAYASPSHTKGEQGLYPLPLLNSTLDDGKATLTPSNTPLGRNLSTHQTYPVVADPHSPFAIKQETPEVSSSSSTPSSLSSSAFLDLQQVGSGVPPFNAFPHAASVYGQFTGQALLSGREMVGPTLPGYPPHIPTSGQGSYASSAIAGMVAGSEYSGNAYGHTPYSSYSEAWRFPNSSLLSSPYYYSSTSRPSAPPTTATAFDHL
# Sequence of Genome polyprotein (P29990 2492-3391 limits assumed): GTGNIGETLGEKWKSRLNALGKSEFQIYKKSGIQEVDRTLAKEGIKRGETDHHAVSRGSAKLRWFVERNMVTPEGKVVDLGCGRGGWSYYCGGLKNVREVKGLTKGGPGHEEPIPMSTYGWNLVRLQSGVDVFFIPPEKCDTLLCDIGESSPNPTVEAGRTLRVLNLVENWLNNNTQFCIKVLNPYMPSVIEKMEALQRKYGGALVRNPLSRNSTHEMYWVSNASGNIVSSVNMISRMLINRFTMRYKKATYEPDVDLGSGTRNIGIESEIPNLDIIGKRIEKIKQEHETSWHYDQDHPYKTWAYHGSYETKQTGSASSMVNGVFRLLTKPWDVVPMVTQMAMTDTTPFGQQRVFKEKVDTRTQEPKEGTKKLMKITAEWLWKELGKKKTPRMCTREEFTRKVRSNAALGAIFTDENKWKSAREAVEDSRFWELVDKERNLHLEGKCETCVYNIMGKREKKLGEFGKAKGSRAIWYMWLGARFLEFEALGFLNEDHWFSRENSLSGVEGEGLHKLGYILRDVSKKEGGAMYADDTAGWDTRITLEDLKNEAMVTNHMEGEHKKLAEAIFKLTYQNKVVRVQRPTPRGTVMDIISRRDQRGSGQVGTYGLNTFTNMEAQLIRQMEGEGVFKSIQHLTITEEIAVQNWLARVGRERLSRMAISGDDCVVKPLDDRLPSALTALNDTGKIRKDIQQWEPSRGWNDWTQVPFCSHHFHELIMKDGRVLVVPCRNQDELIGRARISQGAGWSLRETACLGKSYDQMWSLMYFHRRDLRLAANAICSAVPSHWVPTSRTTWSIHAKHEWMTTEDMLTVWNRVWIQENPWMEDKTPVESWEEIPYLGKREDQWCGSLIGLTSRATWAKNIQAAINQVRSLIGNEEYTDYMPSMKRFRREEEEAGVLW
smiles,measurement,setting,value
O=C(O)c1ccccc1-c1ccccc1C(=O)Nc1ccc2c(c1)C(=O)c1ccccc1-2,IC50,[1],58.9 µM (active)
C[C@H](N)CN1CCc2ccc(Br)cc21,AC50,[2],0.84 µM (active)
Cc1ccc(OCC(=O)OCc2c(C)noc2C)cc1C,IC50,[3],22.7 µM (active)
CC(C)(C)NCC1(CO)SC(N)=NC1=O (stereo not drawn),EC50,[4],3.82 µM (active)
same,EC50,[5],> 30 µM (not active)
same,IC50,[3],16.4 µM (active)
CCCN(CCC)C(S)=NC1CC2C=CC1C2 (stereo not drawn),EC50,[6],> 260 µM (inactive)
O=C(Oc1ccccc1Cl)c1ccc2c(=O)n3c(nc2c1)CCC3,IC50,[3],5.48 µM (active)
O=C(CSc1nnc(-c2c[nH]c3ccccc23)n1-c1ccc(F)cc1)NCc1ccco1,EC50,[6],40.4 µM (active)
COc1ccc(NC(=O)C(=O)NCCC2CCCCN2S(=O)(=O)c2ccccc2)cc1 (stereo not drawn),EC50,[7],22.8 µM (active)
same,EC50,[8],19.8 µM (active)
same,EC50,[9],23.4 µM (active)
same,EC50,[10],13.5 µM (inconclusive)
Nc1cccc(C(=O)Nc2ccc3[nH]c(-c4cccnc4)nc3c2)c1,AC50,[2],1.07 µM (active)
CC(=O)N1c2ccc(S(=O)(=O)N3CCCCC3)cc2CC1C(=O)Nc1ccccc1C(F)(F)F (stereo not drawn),EC50,[11],> 112 µM (not active)
same,EC50,[12],> 112 µM (not active)
CCOC(=O)CC(=O)CSCC(=O)Nc1ccc(C)cc1,EC50,[6],> 260 µM (inactive)
COc1ccccc1N(CC(=O)NC1CCCCC1)S(C)(=O)=O,EC50,[13],> 350 µM (not active)
same,EC50,[14],> 350 µM (not active)
Cc1ccccc1CSc1nsc(N)n1,EC50,[6],> 260 µM (inactive)
same,AC50,[15],2 µM (inconclusive)
Cc1sc2ncnc(SCC(=O)N3CCCC3)c2c1C,EC50,[11],> 112 µM (not active)
same,EC50,[12],> 112 µM (not active)
O=C1C(=O)c2ccccc2C(O)=C1c1cccc([N+](=O)[O-])c1,CC50,[16],14.2 µM (active)
same,EC50,[13],> 350 µM (not active)
same,EC50,[14],56.5 µM (active)
CCOC(=O)c1cc2nc(-c3ccco3)cc(C(F)(F)F)n2n1,EC50,[17],> 195 µM (not active)
same,EC50,[11],> 112 µM (not active)
same,EC50,[12],> 112 µM (not active)
CCN(CC)c1ccc(CNCCc2ccccc2F)cc1,AC50,[2],1.36 µM (active)
COc1cccc(-c2cn3nc(C)c(C)nc3n2)c1,EC50,[11],19.7 µM (active)
same,EC50,[12],6.72 µM (active)
O=C(Nc1cccc(Cl)c1)Nc1ccccc1C(=O)O,EC50,[11],0.654 µM (active)
same,EC50,[12],11.4 µM (active)
O=C(CSC1CS(=O)(=O)c2cc([N+](=O)[O-])ccc21)NNC(=O)c1ccc(Cl)cc1 (stereo not drawn),EC50,[6],> 260 µM (inactive)
CCOC(=O)COc1c(-c2ccc(OC)cc2)oc2ccccc2c1=O,IC50,[3],5.55 µM (active)
O=C(O)c1ccccc1OC(C(=O)Nc1cc(Cl)cc(Cl)c1)c1ccccc1 (stereo not drawn),EC50,[6],> 260 µM (inactive)
CCOC(=O)c1c(S(=O)(=O)NCc2ccc(C)o2)c(C)n(C)c1C,EC50,[13],> 350 µM (not active)
same,EC50,[14],> 350 µM (not active)
CCCn1cnc2cc(NCc3ccccc3O)ccc21,AC50,[2],3.92 µM (active)
CCc1ccc(-n2c(S)nnc2Cc2ccccc2)cc1,EC50,[11],> 112 µM (not active)
same,EC50,[12],> 112 µM (not active)
CN(CC(=O)Nc1ccccc1Cl)CC(=O)Nc1c(F)cccc1F,EC50,[6],> 260 µM (inactive)
CCn1c(-c2cc(Br)ccc2O)n[nH]c1=S,AC50,[2],4.27 µM (active)
NC(=O)c1cc2cc(Br)ccc2o/c1=N\Cc1ccccc1,EC50,[6],> 260 µM (inactive)
C[C@H](CO)N1C[C@H](C)[C@@H](CN(C)C(=O)NC2CCCCC2)Oc2c(cccc2N(C)C)C1=O,AC50,[18],36.3 µM (active)
same,AC50,[19],0.558 µM (active)
COc1ccc(S(=O)(=O)Nc2ccc3c(c2)C(=O)N([C@H](C)CO)C[C@H](C)[C@@H](CN(C)Cc2ccc(C(F)(F)F)cc2)OCCCC[C@H](C)O3)cc1,AC50,[20],18.9 µM (active)
CN1C(=O)c2cc(NC(=O)c3cscn3)ccc2OC[C@@H]2O[C@H](CC(=O)NCc3ccc(Cl)c(Cl)c3)CC[C@H]21,AC50,[21],21 µM (active)
same,AC50,[18],6.62 µM (active)
same,AC50,[19],40.6 µM (active)
C[C@H]1CN([C@@H](C)CO)C(=O)Cc2cc(NC(=O)Nc3cccc4ccccc34)ccc2O[C@H]1CN(C)S(=O)(=O)c1ccc(F)cc1,AC50,[21],3.46 µM (active)
same,AC50,[18],7.77 µM (active)
same,AC50,[19],6.07 µM (active)
CC/C(C)=N/Nc1nc(-c2cc3cccc(OC)c3oc2=O)cs1,AC50,[2],0.091 µM (active)
CN(C)c1ccc(/C=N/Nc2nncc3ccccc23)cc1,EC50,[11],1.11 µM (active)
same,EC50,[12],2.37 µM (active)
CCO/C(O)=C1\C(C)=Nc2ncnn2C1c1ccc2c(c1)OCO2 (stereo not drawn),EC50,[6],> 260 µM (inactive)
COc1cc(/C=N/NC(=O)CCNC(=O)c2ccccc2Cl)ccc1O,AC50,[2],3.1 µM (active)
same,IC50,[22],29 µM (active)
CNc1c2c(nn1C)CCCC2 [TETRYDAMINE],EC50,[13],> 350 µM (not active)
same,EC50,[14],> 350 µM (not active)
same,AC50,[23],39.8 µM (inconclusive)
